Where two headings read alike, the source gives them in different places.
Tests used:
eye of Dutch rabbits = test: 13-week repeated ocular administration, irritable response in cornea, conjunctiva or iris; format: in vivo
Protocol: The administration was performed 4 times a day with 2-hour intervals for 13 weeks. The cornea, conjunctiva and iris were observed about occurrence of irritable response before, and 4, 8, and 13 weeks after the initiation of the administration. The observation was performed within the time from 0.5 hour to 2 hours after the last administration of the day. The cornea was observed about a presence of opacity and its area in the cornea. The conjunctiva was observed about occurrence of hyperemia, redness and swelling. The iris was observed about occurrence of hyperemia, congestion, swelling and hemorrhage. The ratio of cases showing irritable response in the cornea, conjunctiva or iris was evaluated by percent in the group.

healthy human eyes = conditions: dose of 5 μg, cited from earlier work
monkey eyes [1] = conditions: dose of 3 μg; cited from earlier work
monkey eyes [2] = test: Effects on IOP in monkey eyes (applanation pneumatonometer); format: in vivo, cynomolgus monkeys; conditions: 15 μg/eye
Protocol: (§1) Nine male cynomolgus monkeys (body weights of animals ranged between 3.2 and 5.4 kg) without abnormalities in the anterior segment of the eye were used.
(§2) The left eye received an equal volume of the vehicle.
Intraocular pressure (IOP) measurements were conducted by means of an applanation pneumatonometer (Model 30 Classic™, Mentor O & O, Inc., USA) immediately before the administration (0-hour), and at 2, 4, 8, 12, 24, 28, and 32 hours after the administration.

monkey eyes [3] = conditions: 50 μg per eye; cited from earlier work
[4] = test system: eye of healthy volunteers; test: Intraocular pressure lowering effect in healthy volunteers (applanation tonometer); format: in vivo, human; conditions: for Intraocular pressure lowering effect (difference in IOP between test eye and control eye): 12 μg/eye; for lowered the IOP by, as compared with the control eye: 12 μg
Protocol: The vehicle solution was ocularly administered to the contralateral eye (control eye). Intraocular pressure (IOP) was measured by means of an applanation tonometer before, and 4, 6, and 12 hours after the administration. The IOP lowering effect of the test compound was evaluated based on difference in IOP between test eye and the control eye at each time point of IOP measurement.

monkey eyes [5] = test: Eye irritancy scoring in monkeys (criteria based on Draize test); format: in vivo, cynomolgus monkeys; set-up: key to Eye irritancy (Score) Conjunctivae Chemosis: 0: No swelling; 1: Any swelling above normal (includes nictitating membrane); 2: Obvious swelling with partial eversion of the lids; 3: Swelling with lids about half closed; 4: Swelling with lids about half closed to completely closed; conditions: 15 μg/eye
Text: as §1, §2
Eye irritancy was scored according to the criteria presented in Table 4 at the same time points as IOP measurements. These criteria are based on those of Draize test.

eye of white rabbits = test: Incidence of conjunctival hyperemia after single ocular administration; conditions: 50 μg eye drop, once to one eye, two hours after the administration
Protocol: The presence of conjunctival hyperemia was examined at two hours after the administration and the ratio of cases showing conjunctival hyperemia was evaluated by percent in each group.

CC(C)OC(=O)CCC/C=C\C[C@@H]1[C@@H](CCC(=O)CCc2ccccc2)[C@H](O)C[C@@H]1O [13,14-dihydro-15-keto-17-phenyl-18,19,20-trinor-PGF2α isopropyl ester]
effect on the cornea, conjunctiva and iris (eye of Dutch rabbits; 30 μg/eye each 4 times a day for 13 weeks): no effect
Incidence rate of ocular irritation (eye of Dutch rabbits; 4 weeks after initiation, 30 μg/eye 4 times/day): 0%
Incidence rate of ocular irritation (eye of Dutch rabbits; 8 weeks after initiation, 30 μg/eye 4 times/day): 0%
Incidence rate of ocular irritation (eye of Dutch rabbits; 13 weeks after initiation, 30 μg/eye 4 times/day): 0%
Incidence rate of ocular irritation (eye of Dutch rabbits; Pre (before initiation of administration)): 0%
intraocular pressure reducing effects (healthy human eyes; healthy human eyes): showed intraocular pressure reducing effects
side effect such as conjunctival hyperemia, ocular irritation and foreign body sensation (healthy human eyes; in the human): no side effect
intraocular pressure reducing effects (monkey eyes [1]): showed intraocular pressure reducing effects
IOP (monkey eyes [2]; 0 hr (immediately before administration), right eye, Mean ± SE): 19.7 ± 0.6 mmHg
IOP reduction (monkey eyes [2]; topical): significant IOP reduction
intraocular pressure reducing effects (monkey eyes [3]): showed intraocular pressure reducing effects
Intraocular pressure lowering effect (difference in IOP between test eye and control eye) ([4]; 4 hours after administration): −1.0 mmHg
lowered the IOP by, as compared with the control eye ([4]; 4 hours after the administration): 1.0 mmHg
Intraocular pressure lowering effect (difference in IOP between test eye and control eye) ([4]; 6 hours after administration): −0.8 mmHg
lowered the IOP by, as compared with the control eye ([4]; 6 hours after the administration): 0.8 mmHg
Intraocular pressure lowering effect (difference in IOP between test eye and control eye) ([4]; 12 hours after administration): −1.1 mmHg
lowered the IOP by, as compared with the control eye ([4]; 12 hours after the administration): 1.1 mmHg
Eye irritancy (Score) Conjunctivae Chemosis (monkey eyes [5]; 2 hr after administration): 0
Eye irritancy (Score) Conjunctivae Chemosis (monkey eyes [5]; 4 hr after administration): 0
Eye irritancy (Score) Conjunctivae Chemosis (monkey eyes [5]; 8 hr after administration): 0
Eye irritancy (Score) Conjunctivae Chemosis (monkey eyes [5]; 12 hr after administration): 0
Eye irritancy (Score) Conjunctivae Chemosis (monkey eyes [5]; 24 hr after administration): 0
Eye irritancy (Score) Conjunctivae Chemosis (monkey eyes [5]; 28 hr after administration): 0
Eye irritancy (Score) Conjunctivae Chemosis (monkey eyes [5]; 32 hr after administration): 0
Eye irritancy (Score) Conjunctivae Chemosis (monkey eyes [5]; Before administration): 0
signs or symptoms of ocular irritation (monkey eyes [5]; after topical administration): no signs or symptoms
Incidence Rate of Conjunctival Hyperemia (eye of white rabbits): 33%

— patent publication US20040254247A1, “Method and composition for treatnment of ocular hypertension and glaucoma” (priority 2001, published 2004)
